In US5616684A, “Cyclic peptides and use thereof” (priority 1991, dated 1997):
Read-outs that look alike come from different tables or passages of the source. One block for each molecule: values may come before it.

What was measured:
[1] = amide bond
[2] = target: T1, endothelin receptor A (ETA) (Sus scrofa, UniProt Q29010); test: Assay of Affinity for Receptor (1): Binding Activity on ETA Receptor; parameters: key to Binding Activity on ET Receptor (R. act.) ETA: relative binding activity; reference cyclic pentapeptide = 1.0; details: specific activity, binding activity of cyclo[-D-Glu-Ala-D-aIle-Leu-D-Trp-] taken as 1.0; porcine heart membrane fraction, 125I-labeled endothelin-1, 25° C., 1 hour
T1 construct: A membrane fraction prepared from the porcine heart; from tissue; host or cells: porcine heart membrane fraction
T1 sequence (Q29010 21-427): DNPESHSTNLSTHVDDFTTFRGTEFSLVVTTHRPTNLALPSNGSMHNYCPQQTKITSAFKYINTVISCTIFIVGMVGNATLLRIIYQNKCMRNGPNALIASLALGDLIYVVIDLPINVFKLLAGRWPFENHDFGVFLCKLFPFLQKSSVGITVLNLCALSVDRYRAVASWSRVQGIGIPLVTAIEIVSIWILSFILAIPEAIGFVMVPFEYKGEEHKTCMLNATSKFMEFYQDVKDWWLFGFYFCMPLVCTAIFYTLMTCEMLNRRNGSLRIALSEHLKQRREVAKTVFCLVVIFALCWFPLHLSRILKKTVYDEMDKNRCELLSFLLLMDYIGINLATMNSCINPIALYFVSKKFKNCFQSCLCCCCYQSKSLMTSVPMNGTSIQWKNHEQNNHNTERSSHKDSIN
Protocol: Assay of Affinity for Receptor (1) . . . Binding Activity on ETA Receptor
A membrane fraction prepared from the porcine heart was diluted to 0.15 mg/ml by using a buffer solution for assay, and 100 μl of the resulting suspension of the membrane fraction was poured into each assay tube to use for assay. To this suspension of the membrane fraction was added 2 μl of 5 nM ^125 I-labeled endothelin-1 solution. Further, 3 μl of a test peptide solution was added thereto, followed by incubation at a temperature of 25° C. for 1 hour. Then, the resulting suspension was diluted with 900 μl of the buffer solution for assay cooled with ice, and thereafter separated into a supernatant and a precipitate by centrifugation at 12,000×g for 10 minutes. Cell membranes and an endothelin receptor A (ETA) embedded therein were contained in the precipitate, and radioactive iodine-labeled endothelin combined with the receptor was also recovered in the precipitate. Accordingly, the amount of radioactive iodine-labeled endothelin combined with the endothelin receptor A (ETA) was determined by measuring the amount of radioactive iodine contained in the precipitate with a gamma-ray counter. The cyclic pentapeptide described in Japanese Patent Application No. 2-413828/1990, cyclo[-D-Glu-Ala-D-aIle-Leu-D-Trp-], was used as a control compound. The numerical value of ETA shown in Table 1 is the value of specific activity, taking the binding activity of this cyclic pentapeptide on the receptor A as 1.0. The binding activity (IC50) of this cyclic pentapeptide on the ETA receptor is 2×10^-6 M.

[3] = tested on: ETB receptor (guinea pig kidney crude receptor membrane fraction); test: ETB Radio Receptor Assay *2; format: binding; details: relative activity (Example 8 given as 100), 125I-endothelin-1, 37° C., 90 minutes
Protocol: ETB Radio Receptor Assay *2
In the endothelin radio receptor assay, guinea pigs' kidneys were used. Guinea pigs (Std Hartrey, male 250 g, Japan SLC Ltd.) were made to have a cerebral concussion and sacrificed by bleeding from carotid arteries to pick up the kidneys and removed fat therefrom to prepare the kidneys. The obtained kidneys were sliced and homogenized by politron homogenizer in 20 ml of 50 mM Tris-HCl buffer [pH 7.4; 20 mM NaHCO3, 0.1 mM PMSF (Phenylmethylsulfonyl Fluoride), 1 mM EDTA (Ethylenediaminetetraacetic acid)] per one kidney. The homogenized kidney was applied to a centrifugation at 1,000×g for 15 minutes and the supernatant was further applied to a centrifugation for 20 minutes at 30,000×g. The resulting precipitate was twice washed with 50 mM Tris-HCl buffer (pH 7.4) containing 0.1 mM PMSF, 1 mM EDTA. The resultant was stored at -80 ° C. as a crude receptor membrane fraction and was used as the suspension in the following buffer when necessary.
740 Bq of ^125 I-endothelin-1 (81.4 TBq/mmol, Du Pont, USA) as a radio ligand, the crude membrane fraction (2.1 μg protein) and samples were added to the following buffer. The reaction was performed at 37° C., for 90 minutes in 0.2 ml of the buffer [50 mM Tris-HCl buffer (pH 7.4) containing 0.1 mM PMSF, 1 mM EDTA, 0.2% bovine serum albumin].
The reaction was stopped by fast filtration on a glass filter (GF/B, Wattman, USA) by Cell Harvestor (290 PHD, Cambridge-Technology, Great Britain), and the filter was three times washed with 50 mM Tris-HCl buffer (pH 7.4). Radio activity remained on the filter was assayed by a gamma counter.

Molecule: CC(C)C[C@@H]1NC(=O)[C@@H](c2cccs2)NC(=O)[C@H](CC(=O)OCc2ccccc2)NC(=O)[C@H](CC(=O)NCCc2c[nH]c3ccccc23)NC(=O)[C@@H](CC(=O)OCc2ccccc2)NC(=O)[C@@H](Cc2c[nH]c3ccccc23)NC1=O
ring closure, yield of all isomers ([1]; from CC(C)C[C@H](NC(=O)[C@H](NC(=O)[C@H](CC(=O)OCc1ccccc1)NC(=O)[C@H](CC(=O)NCCc1c[nH]c2ccccc12)NC(=O)[C@@H](CC(=O)OCc1ccccc1)NC(=O)[C@@H](Cc1c[nH]c2ccccc12)NC(=O)OC(C)(C)C)c1cccs1)C(=O)O, HONB/DCC (active ester), then diisopropylethylamine, DMF, 4.75 mM, 3 steps): 90.4%

Binding Activity on ET Receptor (R. act.) ETA [2]: 110
Binding Activity on ET Receptor (R. act.) ET8 *2 [3]: 330
Molecule: CC(C)C[C@@H]1NC(=O)[C@@H](CC(C)C)NC(=O)[C@H](CC(=O)O)NC(=O)[C@H](Cc2c[nH]c3ccccc23)NC(=O)[C@@H](CC(=O)O)NC(=O)[C@@H](Cc2cn(C)c3ccccc23)NC1=O [Example 95, Cyclo[--D--Asp--Trp--Asp--D--Leu--Leu--D--Trp(Me)--]]

Molecule: CC(C)C[C@@H]1NC(=O)[C@@H](CC(C)C)NC(=O)[C@H](CC(=O)OCc2ccccc2)NC(=O)[C@@H]2C[C@@H](OCc3ccccc3)CN2C(=O)[C@@H](CC(=O)OCc2ccccc2)NC(=O)[C@@H](Cc2c[nH]c3ccccc23)NC1=O [cyclo[-D-Asp(OBzl)-Hyp(Bzl)-Asp(OBzl)-D-Leu-Leu-D-Trp-]]
ring closure, yield of all isomers ([1]; from CC(C)C[C@H](NC(=O)[C@@H](CC(C)C)NC(=O)[C@H](CC(=O)OCc1ccccc1)NC(=O)[C@@H]1C[C@@H](OCc2ccccc2)CN1C(=O)[C@@H](CC(=O)OCc1ccccc1)NC(=O)[C@@H](Cc1c[nH]c2ccccc12)NC(=O)OC(C)(C)C)C(=O)O, HONB/DCC (active ester), then TEA, DMF, 9.5 mM, 16.0 h, 3 steps): 82.6%

Molecule: CC(C)C[C@@H]1NC(=O)[C@@H](CC(C)C)NC(=O)[C@H](CC(=O)O)NC(=O)[C@H](C)NC(=O)[C@@H](CC(=O)O)NC(=O)[C@@H](Cc2c[nH]c3ccccc23)NC1=O [cyclo[-D-Asp-Ala-Asp-D-Leu-Leu-D-Trp-]]
ring closure, yield of all isomers ([1]; from CC(C)C[C@H](NC(=O)[C@@H](CC(C)C)NC(=O)[C@H](CC(=O)OCc1ccccc1)NC(=O)[C@H](C)NC(=O)[C@@H](CC(=O)OCc1ccccc1)NC(=O)[C@@H](Cc1c[nH]c2ccccc12)NC(=O)OC(C)(C)C)C(=O)O, HONB/DCC (active ester), TEA, DMF, 5.0 mM, 4 steps): 18.2%

Molecule: CC(C)C[C@@H]1NC(=O)[C@@H](CC(C)C)NC(=O)[C@@H](CC(=O)O)NC(=O)[C@H](C)NC(=O)[C@@H](CC(=O)O)NC(=O)[C@@H](Cc2c[nH]c3ccccc23)NC1=O [cyclo[-D-Asp-Ala-D-Asp-D-Leu-Leu-D-Trp-]]
ring closure, yield of all isomers ([1]; from CC(C)C[C@H](NC(=O)[C@@H](CC(C)C)NC(=O)[C@@H](CC(=O)OCc1ccccc1)NC(=O)[C@H](C)NC(=O)[C@@H](CC(=O)OCc1ccccc1)NC(=O)[C@@H](Cc1c[nH]c2ccccc12)NC(=O)OC(C)(C)C)C(=O)O, HONB/DCC (active ester), TEA, DMF, 5.0 mM, 4 steps): 15.3%

Molecule: CC(C)C[C@@H]1NC(=O)[C@@H](CC(C)C)NC(=O)[C@@H](CCC(=O)O)NC(=O)[C@H](C)NC(=O)[C@@H](CC(=O)O)NC(=O)[C@@H](Cc2c[nH]c3ccccc23)NC1=O [cyclo[-D-Asp-Ala-D-Glu-D-Leu-Leu-D-Trp-]]
ring closure, yield of all isomers ([1]; from CC(C)C[C@H](NC(=O)[C@@H](CC(C)C)NC(=O)[C@@H](CCC(=O)OCc1ccccc1)NC(=O)[C@H](C)NC(=O)[C@@H](CC(=O)OCc1ccccc1)NC(=O)[C@@H](Cc1c[nH]c2ccccc12)NC(=O)OC(C)(C)C)C(=O)O, HONB/DCC (active ester), TEA, DMF, 4.97 mM, 16.0 h, 4 steps): 10.8%

Molecule: CC(C)C[C@@H]1NC(=O)[C@@H](CC(C)C)NC(=O)[C@H](CCC(=O)O)NC(=O)[C@H](C)NC(=O)[C@@H](CC(=O)O)NC(=O)[C@@H](Cc2c[nH]c3ccccc23)NC1=O [cyclo[-D-Asp-Ala-Glu-D-Leu-Leu-D-Trp-]]
ring closure, yield of all isomers ([1]; from CC(C)C[C@H](NC(=O)[C@@H](CC(C)C)NC(=O)[C@H](CCC(=O)OCc1ccccc1)NC(=O)[C@H](C)NC(=O)[C@@H](CC(=O)OCc1ccccc1)NC(=O)[C@@H](Cc1c[nH]c2ccccc12)NC(=O)OC(C)(C)C)C(=O)O, HONB/DCC (active ester), TEA, DMF, 4.97 mM, 16.0 h, 4 steps): 24.1%

Molecule: CC(C)C[C@@H]1NC(=O)[C@@H](CC(C)C)NC(=O)[C@H](CC(=O)O)NC(=O)[C@H](CC(=O)NCCc2c[nH]c3ccccc23)NC(=O)[C@@H](CC(=O)O)NC(=O)[C@@H](Cc2c[nH]c3ccccc23)NC1=O [cyclo[-D-Asp-Asn(CH2 CH2 -Ind)-Asp-D-Leu-Leu-D-Trp-]]
ring closure, yield of all isomers ([1]; from CC(C)C[C@H](NC(=O)[C@@H](CC(C)C)NC(=O)[C@H](CC(=O)OCc1ccccc1)NC(=O)[C@H](CC(=O)NCCc1c[nH]c2ccccc12)NC(=O)[C@@H](CC(=O)OCc1ccccc1)NC(=O)[C@@H](Cc1c[nH]c2ccccc12)NC(=O)OC(C)(C)C)C(=O)O, 4 steps): 19.4%

Molecule: CC(C)C[C@@H]1NC(=O)[C@@H](c2cccs2)NC(=O)[C@H](CC(=O)O)NC(=O)[C@H](CC(=O)NCCc2c[nH]c3ccccc23)NC(=O)[C@@H](CC(=O)O)NC(=O)[C@@H](Cc2c[nH]c3ccccc23)NC1=O [cyclo[-D-Asp-Asn(CH2 CH2 -Ind)-Asp-D-Thg(2)-Leu-D-Trp-]]
ring closure, yield of all isomers ([1]; from CC(C)C[C@H](NC(=O)[C@H](NC(=O)OC(C)(C)C)c1cccs1)C(=O)N[C@H](Cc1c[nH]c2ccccc12)C(=O)N[C@H](CC(=O)OCc1ccccc1)C(=O)N[C@@H](CC(=O)NCCc1c[nH]c2ccccc12)C(=O)N[C@@H](CC(=O)OCc1ccccc1)C(=O)O, 4 steps): 9.5%

Molecule: CC(C)C[C@@H]1NC(=O)[C@@H](CC(C)C)NC(=O)[C@H](CC(=O)O)NC(=O)[C@H](CC(=O)NCCc2ccccc2)NC(=O)[C@@H](CC(=O)O)NC(=O)[C@@H](Cc2c[nH]c3ccccc23)NC1=O [cyclo[-D-Asp-Asn(CH2 CH2 Ph)-Asp-D-Leu-Leu-D-Trp-]]
ring closure, yield of all isomers ([1]; from CC(C)C[C@H](NC(=O)[C@@H](CC(C)C)NC(=O)[C@H](CC(=O)OCc1ccccc1)NC(=O)[C@H](CC(=O)NCCc1ccccc1)NC(=O)[C@@H](CC(=O)OCc1ccccc1)NC(=O)[C@@H](Cc1c[nH]c2ccccc12)NC(=O)OC(C)(C)C)C(=O)O, HONB/DCC (ONB active ester), then TEA, DMF, 3.46 mM, 16.0 h, 4 steps): 24.1%

Molecule: CC(C)C[C@@H]1NC(=O)[C@@H](CC(C)C)NC(=O)[C@H](CC(=O)O)NC(=O)[C@H](CC(=O)NCc2ccccc2)NC(=O)[C@@H](CC(=O)O)NC(=O)[C@@H](Cc2c[nH]c3ccccc23)NC1=O [cyclo[-D-Asp-Asn(CH2 Ph)-Asp-D-Leu-Leu-D-Trp-]]
ring closure, yield of all isomers ([1]; from CC(C)C[C@H](NC(=O)[C@@H](CC(C)C)NC(=O)[C@H](CC(=O)OCc1ccccc1)NC(=O)[C@H](CC(=O)NCc1ccccc1)NC(=O)[C@@H](CC(=O)OCc1ccccc1)NC(=O)[C@@H](Cc1c[nH]c2ccccc12)NC(=O)OC(C)(C)C)C(=O)O, HONB/DCC (ONB active ester), TEA, DMF, 3.46 mM, 16.0 h, 4 steps): 23.8%

Binding Activity on ET Receptor (R. act.) ETA [2]: 38
Binding Activity on ET Receptor (R. act.) ET8 *2 [3]: 240
Molecule: Cyclo[--D--Asp--D,L-Tic--Asp--D--Leu--Leu--D--Trp--] [Example 86]
